Data set [1] deals with bound protein. Briefly: Colloidal gold staining of bound protein after MDCK culture in media containing 5% FBS, visual. The conditions noted are these: colloidal gold after cell culture, visual observation. The method, boiled down:
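Polystyrene wells coated with non-ionic surfactants, gamma-sterilized at 1.5 Mrad, seeded with 5.6×10^4 MDCK cells per well in medium with 5% FBS and cultured 2 days at 37 °C, 5% CO2. After fixing, bound protein detected by colloidal gold staining; visual assessment only.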

Data set [2] deals with BSA. Briefly: Polymer blends molded into petri dishes, BSA binding by colloidal gold. To be noted: for BSA or FBS protein binding: blend in polypropylene or EVA.
The subject of data set [3] is BSA protein (Bovine Serum Albumin, Fraction V). Briefly: BSA binding to coated polystyrene 24-well plates at different pH, colloidal gold stain. To be noted: for Absorbance (550 nm) pH = 9.2: BSA 10 μg/ml in 0.10 M NaHCO3 buffer; for Absorbance (550 nm) pH = 7.4: BSA 10 μg/ml in 0.10 M PBS; for Absorbance (550 nm) pH = 4.6: BSA 10 μg/ml in 0.10 M acetate buffer.
For data set [4], the system named is IgG. The data set can be described thus: Coating durability using water washes, IgG binding by colloidal gold. The conditions noted are these: for Absorbance (550 nm) Initial: coated polystyrene, no water wash; for Absorbance (550 nm) 1 Time 1 hr 23° C. / Absorbance (550 nm) 1 Time 24 hr 23° C. / Absorbance (550 nm) 1 Time 24 hr 37° C. / Absorbance (550 nm) 1 Time 24 hr 70° C.: dI H2O wash 1 time; for Absorbance (550 nm) 6 Times 30 min each 23° C.: dI H2O wash 6 times. A digest of the protocol: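 24-well polystyrene plates coated with surfactants; durability tested by water washes on a rocker. IgG incubated 30 minutes at 23° C. with rocking, then rinsed 3× with water.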

Data set [5] has as its system MDCK cells. Briefly: MDCK cell attachment to coated polystyrene 24-well plates. It is filed as cell-based. To be noted: coated PS 24-well, gamma sterilized, media with 5% FBS, two days, visual. As to the method: The procedures used were as follows. Polystyrene 24-well plates were coated with the non-ionic surfactants listed in Table 5 in accordance with the procedures described in Materials and Methods. Uncoated plates were used as a control. For comparison, plates with a covalently attached acrylamide coating (Corning Costar Catalog #2500) and with a stearic acid coating were also tested. The stearic acid coating was applied in the same manner as the non-ionic surfactants again using a 0.1% (w/v) solution.
The plates were gamma sterilized at 1.5 Mrad and then inoculated with 5.6×10^4 MDCK […] per well in 1 ml of complete media containing 5% FBS (Fetal Bovine Serum). Incubation was carried out at 37° C. in a 5% CO2 atmosphere for two days. The plates were fixed and stained, and cell attachment was noted. Following this, the wells were stained using the colloidal gold technique to detect bound protein. Only visual observations were made.
Experiments were also performed with cells suspended in serum. The cells used in these experiments were MDCK cells. The surfactants used were the same as used in Table 5. Again, reduced binding of the cells to surfaces treated with a non-ionic surfactant was observed.

Data set [6] has as its system IgG. The data set can be described thus: IgG/Au staining of coated polystyrene, type of endgroups. The procedure: Except where indicated, the non-ionic surfactants were applied to the hydrophobic surfaces being tested as a 0.1% (weight/volume) solution in isopropanol. A sufficient amount of coating solution was used to cover the surface being testing with a thin layer of the solution (e.g., 25 μl of the solution per well for a standard 24-well plate). In some cases, the solution was applied to surface by spraying; in others, it was poured onto the surface (into the well). Except where indicated, coated samples were either dried at 70° C. for 30 minutes in an air circulated oven or dried at room temperature overnight to evaporate the isopropanol. Protein binding was determined in some examples using a colloidal gold straining procedure. In accordance with this procedure, colloidal gold becomes electrostatically attached to bound protein and is detected by measuring absorbance at 550 nanometers. Bio-Rad Laboratories' Colloidal Gold Total Protein Stain was used for this purpose, with absorbance being measured with a Cambridge Technologies Plate Reader (No. 7520). The non-ionic surfactants listed in Table 6 were tested for their ability to produce a low binding surface using the techniques described in Materials and Methods. Polystyrene was used as the hydrophobic test surface and IgG/Au staining was used as the readout.

Data set [7] concerns MDCK cells. The data set can be described thus: Cytotoxicity of extracts of coated plates. It is filed as cell-based. To be noted: media extract of coated plates (37° C., 48 hours), MDCK 72 hours, Gram Crystal Violet. The procedure:
Cytotoxicity experiments were performed using MDCK cells. The non-ionic surfactants tested were Pluronic L-121, L-122, and P-123; Span 80 and 85; and Brij 30, 72 and 93. These molecules were coated onto 24-well plates (Corning Costar #9447) from 0.1% (w/v) in isopropanol. Untreated polystyrene and normal tissue culture treated polystyrene (Corning Costar #25820) 24-well plates were used as controls. All plates were incubated at 37° C. for 48 hours with 2 ml/well of complete DMEM media containing 10% Fetal Bovine Serum (FBS). This incubation was performed in order to extract any potentially toxic compounds from the coated surface into the cell growth serum. The FBS solutions were then transferred to tissue culture treated polystyrene and each well was inoculated with ≈2×10^4 cells/well of MDCK cells, and then incubated at 37° C. for 72 hours in a 5% CO2 atmosphere. Cells were then stained with Gram Crystal Violet.

The mark [8] stands for this setting: blended at 5% into polypropylene, silver enhancer.
[9] abbreviates: blended at 1% into ethylene vinyl acetate.
Where [10] appears, read: blended at 5% into ethylene vinyl acetate, silver enhancer.

These results are taken from patent US7776572B2, “Method for reducing loss of enzyme activity during storage” (Corning Incorporated, priority 1996, dated 2010).

With PEO(4) SORBITOL MONO-STEARATE, the “Visual Color Upon Protein Staining” value in data set [1] was “None”. In addition, the “Bound Protein Absorbance (550 nm) BSA” value in data set [2] (setting [8]) is 0.016. In data set [3], the “Absorbance (550 nm) pH = 9.2” value worked out at 0.00, the “Absorbance (550 nm) pH = 7.4” value was determined as 0.00 and the “Absorbance (550 nm) pH = 4.6” value amounted to 0.00. In data set [4], the “Absorbance (550 nm) Initial” value is recorded as 0.00, the “Absorbance (550 nm) 1 Time 1 hr 23° C.” value was 0.00, the “Absorbance (550 nm) 1 Time 24 hr 23° C.” value was found to be 0.02 and the “Absorbance (550 nm) 1 Time 24 hr 37° C.” value came out at 0.10. In addition, in data set [4], the “Absorbance (550 nm) 1 Time 24 hr 70° C.” value turned out to be 0.10 and the “Absorbance (550 nm) 6 Times 30 min each 23° C.” value is recorded as 0.10. The “MDCK Attachment” value in data set [5] is “None”.
SORBITOL MONO-OLEATE: the “Bound Protein Absorbance at 550 nm” value in data set [6] was found to be 0.00. Moreover, the “BSA or FBS protein binding” value in data set [2] is recorded as “no detectable”. Also, the “Bound Protein Absorbance (550 nm) BSA” value in data set [2] (setting [9]) was 0.147. Further, the “Bound Protein Absorbance (550 nm) BSA” value in data set [2] (setting [10]) was found to be 0.000. For the same compound, in data set [2] (setting [8]), the “Bound Protein Absorbance (550 nm) BSA” value was 0.000. Moreover, in data set [3], the “Absorbance (550 nm) pH = 9.2” value was 0.00, the “Absorbance (550 nm) pH = 7.4” value was found to be 0.00 and the “Absorbance (550 nm) pH = 4.6” value turned out to be 0.00. Besides, the “cell growth and morphology” value in data set [7] was “confluent cell growth with normal cell morphology”. Besides, in data set [4], the “Absorbance (550 nm) Initial” value was found to be 0.00, the “Absorbance (550 nm) 1 Time 1 hr 23° C.” value amounted to 0.00, the “Absorbance (550 nm) 1 Time 24 hr 23° C.” value stood at 0.00 and the “Absorbance (550 nm) 1 Time 24 hr 37° C.” value is 0.00. Also, in data set [4], the “Absorbance (550 nm) 1 Time 24 hr 70° C.” value is 0.00 and the “Absorbance (550 nm) 6 Times 30 min each 23° C.” value was found to be 0.00.
Regarding `CCCCCCCC/C=C\CCCCCCCCOCCOCCO` [PEO(2) OLEYL ETHER], the “Visual Color Upon Protein Staining” value in data set [1] is “None”. Besides, the “Bound Protein Absorbance at 550 nm” value in data set [6] is listed as 0.00. The “BSA or FBS protein binding” value in data set [2] is “no detectable”. Besides, the “Bound Protein Absorbance (550 nm) BSA” value stood at 0.000 in data set [2] (setting [9]), 0.000 in data set [2] (setting [10]), 0.000 in data set [2] (setting [8]) and 0.007 in data set [2] (blended at 5% into polystyrene). In data set [3], the “Absorbance (550 nm) pH = 9.2” value came out at 0.00. The “Absorbance (550 nm) pH = 7.4” value in data set [3] turned out to be 0.00. Moreover, the “Absorbance (550 nm) pH = 4.6” value in data set [3] is on record as 0.00. For the same compound, in data set [7], the “cell growth and morphology” value is recorded as “confluent cell growth with normal cell morphology”.
In the case of `CCCCCCCCCCCCOCCOCCOCCOCCO` [PEO(4) LAURYL ETHER], the “Visual Color Upon Protein Staining” value in data set [1] is given as “None”. Besides, in data set [3], the “Absorbance (550 nm) pH = 9.2” value turned out to be 0.00, the “Absorbance (550 nm) pH = 7.4” value was 0.00 and the “Absorbance (550 nm) pH = 4.6” value was 0.00. For the same compound, in data set [7], the “cell growth and morphology” value is “confluent cell growth with normal cell morphology”. In data set [5], the “MDCK Attachment” value is “None”.
PEO(20) SORBITOL TRI-STEARATE: the “Visual Color Upon Protein Staining” value in data set [1] is “None”. Further, the “Bound Protein Absorbance at 550 nm” value in data set [6] was found to be 0.00. Further, in data set [3], the “Absorbance (550 nm) pH = 9.2” value was 0.00, the “Absorbance (550 nm) pH = 7.4” value came out at 0.00 and the “Absorbance (550 nm) pH = 4.6” value is reported as 0.00. For the same compound, in data set [4], the “Absorbance (550 nm) Initial” value is 0.00, the “Absorbance (550 nm) 1 Time 1 hr 23° C.” value was determined as 0.00, the “Absorbance (550 nm) 1 Time 24 hr 23° C.” value turned out to be 0.02 and the “Absorbance (550 nm) 1 Time 24 hr 37° C.” value came to 0.10. Also, in data set [4], the “Absorbance (550 nm) 1 Time 24 hr 70° C.” value was determined as 0.10 and the “Absorbance (550 nm) 6 Times 30 min each 23° C.” value came out at 0.10. Besides, the “MDCK Attachment” value in data set [5] is listed as “None”.
